Data taken from patent US20070275936A1, “Formulations and Treatment Methods” (priority 1998, published 2007).

Molecular target: chloroquine resistant KI P. falciparum
Type: cell-based
Protocol: Triplicate readings were made for each concentration.
The testing was carried out according to the procedure of Desjardins et al. 1979. After 30 hr culture at 37 degrees C., the same microtiter plates from schizont inhibition assays with another triplicate wells were pulsed with ^3H-hypoxanthine for overnight. The cell suspensions were washed twice on millipore glass fiber filter with Millipore filter apparatus. […] The activity of the drug was measured by plotting DPM against concentration of drug.

SMILES | IC50
C[C@]12CC[C@H](O)C[C@@H]1CC[C@@H]1[C@@H]2CC[C@]2(C)C(=O)[C@H](Cl)C[C@@H]12 [16-chloroepiandrosterone, 16α-chloroepiandrosterone] | ˜9.25 μg/mL
C[C@]12CC[C@H](O)CC1=CC[C@@H]1[C@@H]2CC[C@]2(C)C(=O)[C@H](Br)C[C@@H]12 [DHEA-Br, 16α-bromodehydro-epiandrosterone] | ˜25.0 μg/mL
